US12528812B2 (Genentech, Inc., priority 2020, dated 2026)
Read-outs that look alike come from different tables or passages of the source.

How the values were obtained:
[1] = system: IL-13-stimulated STAT6 phosphorylation in human lung bronchial epithelial BEAS-2B cell line; test: P-STAT6 BEAS-2B + IL-13 cell assay; assay type: cell-based; details: BEAS2B cells, IL13 stimulation, read-out: Cellular JAK1 PSTAT6 BEAS2B + IL13
Procedure, shortened: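 Phospho-STAT6 (Tyr641) was quantified in lysates by MSD electrochemiluminescence after human IL-13 challenge (250 ng/mL stock, 15 min, 37 °C). Before that, BEAS-2B cells cultured 48 h had 1 h compound exposure over 10 concentrations. Percent of control was fitted to a four-parameter logistic model to give IC50.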

[2] = molecular target: T1, recombinant human JAK1 kinase domain protein (Residues 854-1154) (Homo sapiens, UniProt P23458); test: JAK1 biochemical assay (LabChip mobility shift, Ki); details: read-out: Biochem JAK1 Ki
T1 construct: human JAK1 kinase domain protein (Residues 854-1154); purchased Proteros Biostructures GmbH (Martinsried, Germany); host or cells: insect cells

[3] = system: IL-13-stimulated P-STAT6 in TF-1 human erythroleukemia cells; test: P-STAT6 TF-1 + IL-13 assay (JAK1 pathway); assay type: cell-based; details: IL13 stimulation, read-out: Cellular JAK1 PSTAT6 TF-1 + IL13
Protocol: (§1) TF-1 human erythroleukemia cells (ATCC′; Manassas, VA; Catalog No. CRL-2003™) were grown in Roswell Park Memorial Institute (RPMI) medium supplemented with 10% heat-inactivated fetal bovine serum (FBS), 2 ng/mL granulocyte-macrophage colony-stimulating factor, 1× non-essential amino acids (NEAA), and 1 mM sodium pyruvate. The day before the assay, the cultures were transferred to Opti-MEM™, 1×NEAA, 1 mM sodium pyruvate, and 0.5% charcoal-stripped FBS (starve medium). Inhibitor stock solutions (5 mM in DMSO) were serially diluted 1:2 in DMSO to generate a 10-point concentration titration (at 500× test concentration), which was further diluted by a 50-fold dilution in Assay Medium (RPMI containing 1×NEAA and 1 mM sodium pyruvate) to generate a 10× concentration titration (in 2% DMSO). The cells (300,000 cells/well in 35 μL of Assay Medium) were seeded in 384-well Greiner plates. Diluted inhibitor at 10× concentration (5 μL) was added to the cells and the plates were incubated for 30 minutes at 37° C. in a humidified incubator. Cells were stimulated with the human recombinant cytokine at the respective EC90 concentrations, as previously determined for each individual lot. For the phosphorylated signal transducer and activator of transcription 6 (P-STAT6) TF-1+Interleukin-13 (IL-13) assay, 10 μL of 250 ng/mL IL-13 (R&D Systems; Minneapolis, MN) was added to the cells, which were then incubated for 10 minutes at 37° C. For the P-STAT5 TF-1+Erythropoietin (EPO) assay, 10 μL of 110 IU/mL EPO (Gibco Life Technologies, Catalog No. PHC2054) was added to the cells, which were then incubated for […] at 37° C. For both assays, the incubation was followed by addition to the cells of 5 μL of ice-cold 10× cell lysis buffer (Cell Signaling Technologies; Danvers, MA; Catalog No. 9803S) containing 1 mM phenylmethylsulfonyl fluoride (PMSF). Assay plates were frozen at −80° C. for a minimum of 1 hour. In the IL-13 assay, P-STAT6 was measured by coating goat anti-rabbit (GAR) plates (Meso Scale Discovery [MSD]; Rockville, MD; Catalog No. MSD L21RA-1) with rabbit anti-human total STAT6 antibody (Cell Signaling Technologies; Catalog No. 9362S), incubating the cell lysates in the coated plates overnight at 4° C., and then detecting with mouse anti-P-STAT6 (Tyr641) Clone 16E12 antibody (MilliporeSigma; Burlington, MA; Catalog No. 05-590, custom labeled by MSD with SULFO-tag) using standard MSD plate processing, washing, and detection protocols. In the EPO assay, P-STAT5 was detected using the phospho-STAT5a,b Whole Cell Lysate Kit (MSD; Catalog No. K150IGD-1). The electrochemiluminescence (ECL) signal of wells was read on the MESO SECTOR 5600 (MSD) reader.
(§2) Data analysis was performed by subtracting the negative control (cytokine stimulated and 20 μM control inhibitor-treated cells) mean ECL value from the ECL value of all wells, determining percent of control for test compound well ECL values relative to the positive control (cytokine stimulated and DMSO-treated cells) mean ECL value, and determining the IC50 for test compounds with a four-parameter logistic fit model as shown in Equation 4.

[4] = molecular target: Recombinant human JAK2 kinase domain protein (Residues 812-1132) (Homo sapiens, UniProt O60674); test: JAK2 biochemical assay (LabChip mobility shift, Ki); details: Biochem JAK2 Ki
Protocol: The in vitro biochemical assays quantify JAK-catalyzed phosphorylation of a synthetic peptide, as detected using a LabChip® EZ Reader II microfluidic mobility shift instrument (PerkinElmer; Waltham, MA). […] Y-1B is fluorescently labeled on the N-terminus with 5-FAM (5-carboxyfluorescein) and contains a single tyrosine residue (Y) that can be phosphorylated by JAK activity. The substrate peptide stock is prepared in DMSO at 5 mM. […] In each titration experiment, test compound was tested in duplicate at each of the twelve concentrations. Blank reactions contained ATP, peptide, and DMSO, but no JAK or test compound, whereas uninhibited control reactions contained ATP, peptide, JAK, and DMSO, but no test compound.
Peptide plus ATP mixture (24 μL) was added to 1 μL of test compound in DMSO (or DMSO alone). The reactions were initiated by adding 25 μL of JAK enzyme to the inhibitor/peptide/ATP mixture before thoroughly mixing the resultant solution. Reactions were incubated at room temperature (22° C.-23° C.) in a final volume of 50 μL per well in 384-well plates. After a 30-minute incubation, the reactions were stopped by adding 25 μL of 150 mM ethylenediaminetetraacetic acid in 100 mM HEPES buffer (pH 7.2) containing 0.015% Brij 35 to each well.
In each reaction, the residual Y-1B substrate and the phospho-peptide product generated were separated using the EZ Reader II instrument. Electrophoretic separation of molecules of product from molecules of substrate was achieved using downstream and upstream voltages of −500 and −2600 V, respectively, at an operating pressure of −1.3 psi.
The extent (or percent) of conversion of substrate to product was calculated from the corresponding peak heights in the electropherogram using HTS Well Analyzer software, Version 5.2 (PerkinElmer), and the following equation (Equation 1): conversion=[P÷(S+P)]×100 Equation 1% where S and P represent the peak heights of the substrate and product, respectively. After any baseline signal from blank wells containing no JAK was subtracted from the signal of all test wells, the % conversion data were converted to fractional activity as shown in Equation 2, where vi and vo are the % conversion in the presence and absence of test compound, respectively.

[5] = system: EPO-stimulated P-STAT5 in TF-1 human erythroleukemia cells; test: P-STAT5 TF-1 + EPO assay (JAK2 pathway); assay type: cell-based; details: Homo sapiens, TF-1, TF-1 cells, EPO stimulation; read-out: Cellular JAK2 PSTAT5 TF-1 + EPO
Protocol: as §1, §2

T1 sequence (P23458 854-1154): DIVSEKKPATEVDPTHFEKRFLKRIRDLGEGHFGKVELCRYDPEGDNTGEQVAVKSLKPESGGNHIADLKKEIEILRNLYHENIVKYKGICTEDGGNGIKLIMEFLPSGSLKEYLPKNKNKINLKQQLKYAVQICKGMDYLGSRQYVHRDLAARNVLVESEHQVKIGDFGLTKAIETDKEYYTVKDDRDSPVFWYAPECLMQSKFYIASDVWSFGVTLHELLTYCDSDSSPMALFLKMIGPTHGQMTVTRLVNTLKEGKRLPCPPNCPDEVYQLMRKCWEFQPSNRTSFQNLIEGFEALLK
Sequence of Recombinant human JAK2 kinase domain protein (Residues 812-1132) (O60674 812-1132): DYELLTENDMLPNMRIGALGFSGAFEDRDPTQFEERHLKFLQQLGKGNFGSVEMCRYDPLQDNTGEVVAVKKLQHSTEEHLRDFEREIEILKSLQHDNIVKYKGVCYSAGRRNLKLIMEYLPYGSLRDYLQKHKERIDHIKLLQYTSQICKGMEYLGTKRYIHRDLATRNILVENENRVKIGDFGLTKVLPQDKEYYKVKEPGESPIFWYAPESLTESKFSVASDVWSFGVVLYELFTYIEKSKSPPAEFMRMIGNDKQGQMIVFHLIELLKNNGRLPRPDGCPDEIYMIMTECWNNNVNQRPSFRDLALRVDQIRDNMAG

Row | Ki [2] | IC50 ([3]; Homo sapiens, TF-1, TF-1 cells) | Ki [4] | IC50 [5] | IC50 ([3]; TF-1 cells) | SMILES | IC50 ([1]; Homo sapiens, BEAS-2B) | IC50 [1]
1 | 0.28 nM | 4 nM | 0.18 nM | 4.9 nM |  | CC(O)Cn1cc(Oc2ccc(OC(F)F)c(-c3nn(C)cc3NC(=O)c3cnn4cccnc34)c2)cn1 (racemic) [Example 121, N-[3-[2-(difluoromethoxy)-5-[1-[rac-(2S)-2-hydroxypropyl]pyrazol-4-yl]oxy-phenyl]-1-methyl-pyrazol-4-yl]pyrazolo[1,5-a]pyrimidine-3-carboxamide] | 18 nM | 
2 | 0.38 nM | 4.1 nM | 0.26 nM | 9.7 nM |  | Cn1cc(NC(=O)c2cnn3cccnc23)c(-c2cc(Oc3cnn(S(C)(=O)=O)c3)ccc2OC(F)F)n1 [Example 195, N-[3-[2-(difluoromethoxy)-5-(1-methylsulfonylpyrazol-4-yl)oxy-phenyl]-1-methyl-pyrazol-4-yl]pyrazolo[1,5-a]pyrimidine-3-carboxamide] | 13 nM | 
3 | 0.52 nM | 51 nM | 0.41 nM | 52 nM |  | CN1CC(O)(Cn2cc(Oc3ccc(OC(F)F)c(-c4nn(C)cc4NC(=O)c4cnn5cccnc45)c3)cn2)C1 [Example 128, N-[3-[2-(difluoromethoxy)-5-[1-[(3-hydroxy-l-methyl-azetidin-3-yl)methyl]pyrazol-4-yl]oxy-phenyl]-1-methyl-pyrazol-4-yl]pyrazolo[1,5-a]pyrimidine-3-carboxamide] | 30 nM | 
4 | 0.25 nM | 5.2 nM | 0.26 nM | 3 nM |  | CN1CC(O)(c2cc(F)cc(Oc3ccc(OC(F)F)c(-c4nn(C)cc4NC(=O)c4cnn5cccnc45)c3)c2)C1 [Example 96, N-[3-[2-(difluoromethoxy)-5-[3-fluoro-5-(3-hydroxy-1-methyl-azetidin-3-yl)phenoxy]phenyl]-1-methyl-pyrazol-4-yl]pyrazolo[1,5-a]pyrimidine-3-carboxamide] | 13 nM | 
5 | 0.32 nM | 3.6 nM | 0.19 nM | 11 nM |  | Cn1cc(NC(=O)c2cnn3cccnc23)c(-c2cc(Oc3cccnc3)ccc2OC(F)F)n1 [Example 2, N-[3-[2-(difluoromethoxy)-5-(3-pyridyloxy)phenyl]-1-methyl-pyrazol-4-yl]pyrazolo[1,5-a]pyrimidine-3-carboxamide] | 20 nM | 
6 | 0.44 nM | 5.4 nM | 0.28 nM | 8.6 nM |  | Cc1ccc(Oc2ccc(OC(F)F)c(-c3nn(C)cc3NC(=O)c3cnn4cccnc34)c2)cc1C(=O)N(C)C [Example 49, N-[3-[2-(difluoromethoxy)-5-[3-(dimethylcarbamoyl)-4-methyl-phenoxy]phenyl]-1-methyl-pyrazol-4-yl]pyrazolo[1,5-a]pyrimidine-3-carboxamide] | 20 nM | 
7 | 0.13 nM | 24 nM | 0.076 nM | 68 nM |  | O=C(Nc1c[nH]nc1-c1cc(Oc2cn[nH]c2)ccc1OC(F)F)c1cnn2cccnc12 [Example 173, N-[3-[2-(difluoromethoxy)-5-(1H-pyrazol-4-yloxy)phenyl]-1H-pyrazol-4-yl]pyrazolo[1,5-a]pyrimidine-3-carboxamide] | 82 nM | 
8 | 0.31 nM | 4.6 nM | 0.18 nM | 7.3 nM |  | Cn1cc(Oc2ccc(OC(F)F)c(-c3nn(C)cc3NC(=O)c3cnn4cccnc34)c2)cn1 [Example 59, N-[3-[2-(difluoromethoxy)-5-(1-methylpyrazol-4-yl)oxy-phenyl]-1-methyl-pyrazol-4-yl]pyrazolo[1,5-a]pyrimidine-3-carboxamide] | 13 nM | 
9 | 0.32 nM | 12 nM | 0.21 nM | 38 nM |  | CN1CC[C@H](O)[C@@H](n2cc(Oc3ccc(OC(F)F)c(-c4nn(C)cc4NC(=O)c4cnn5cccnc45)c3)cn2)C1 (stereo in doubt) [Example 184, N-[3-[2-(difluoromethoxy)-5-[1-[rac-(3S,4S)-4-hydroxy-l-methyl-3-piperidyl]pyrazol-4-yl]oxy-phenyl]-1-methyl-pyrazol-4-yl]pyrazolo[1,5-a]pyrimidine-3-carboxamide] | 47 nM | 
10 | 0.29 nM |  | 0.21 nM | 49 nM | 26 nM | CN1CC(O)C(n2cc(Oc3ccc(OC(F)F)c(-c4nn(C)cc4NC(=O)c4cnn5cccnc45)c3)cn2)C1 (stereo not drawn) [Example 178, N-[3-[2-(difluoromethoxy)-5-[1-(4-hydroxy-l-methyl-pyrrolidin-3-yl)pyrazol-4-yl]oxy-phenyl]-1-methyl-pyrazol-4-yl]pyrazolo[1,5-a]pyrimidine-3-carboxamide] | 32 nM | 
11 | 1.1 nM | 13 nM | 1.2 nM | 24 nM |  | CN(C)Cc1cncc(Oc2ccc(OC(F)F)c(-c3nn(C)cc3NC(=O)c3cnn4cccnc34)c2)c1 [Example 133, N-[3-[2-(difluoromethoxy)-5-[[5-[(dimethylamino)methyl]-3-pyridyl]oxy]phenyl]-1-methyl-pyrazol-4-yl]pyrazolo[1,5-a]pyrimidine-3-carboxamide] | 62 nM | 
12 | 1.6 nM | 12 nM | 1.2 nM | 33 nM |  | CN1CCC(n2cc(Oc3ccc(OC(F)F)c(-c4nn(C)cc4NC(=O)c4cnn5cccnc45)c3)cn2)C1 (racemic) [Example 141, N-[3-[2-(difluoromethoxy)-5-[1-[rac-(3R)-1-methylpyrrolidin-3-yl]pyrazol-4-yl]oxy-phenyl]-1-methyl-pyrazol-4-yl]pyrazolo[1,5-a]pyrimidine-3-carboxamide] |  | 46 nM
13 | 0.24 nM | 8.2 nM | 0.25 nM | 4.8 nM |  | CN1CC(O)(c2cccc(Oc3ccc(OC(F)F)c(-c4nn(C)cc4NC(=O)c4cnn5cccnc45)c3)c2)C1 [Example 79, N-[3-[2-(difluoromethoxy)-5-[3-(3-hydroxy-l-methyl-azetidin-3-yl)phenoxy]phenyl]-1-methyl-pyrazol-4-yl]pyrazolo[1,5-a]pyrimidine-3-carboxamide] | 8 nM | 
14 | 0.29 nM | 76 nM | 0.23 nM | 160 nM |  | Cn1cc(NC(=O)c2cnn3cccnc23)c(-c2cc(Oc3cnn([C@@H]4CNCC[C@H]4O)c3)ccc2OC(F)F)n1 (stereo in doubt) [Example 181, N-[3-[2-(difluoromethoxy)-5-[1-[rac-(3R,4R)-4-hydroxy-3-piperidyl]pyrazol-4-yl]oxy-phenyl]-1-methyl-pyrazol-4-yl]pyrazolo[1,5-a]pyrimidine-3-carboxamide] | 60 nM | 
